Results on 2 compounds are retold here after patent US20180106782A1, “HIGH THROUGHPUT CARDIOTOXICITY SCREENING PLATFORM” (The Board of Trustees of the Leland Stanford Junior …, priority 2016, published 2018).

In the test the test system is μpatterned hiPSC-CMs. Put plainly: sarcomere length (sl) and sarcomere shortening (ss) from videos of labeled myofibrils. To be noted: for average values of sl (sarcomere length): single cell with labeled myofibrils (FIG. 7A, 7E). In kind it is cell-based, human. The procedure: We analyzed videos of beating patterned hiPSC-CMs with LifeAct-labeled myofibrils (Ribeiro 2015a) to quantify the organization and dynamics of sarcomeres along myofibrils. Sarcomere shortening and movement during the contractile cycle was determined from analyzing how the size of all labeled sarcomeres in a single hiPSC-CM varies during each of its contractile cycles. The minimal length that separates two proximal Z-lines defines sarcomere size. LifeAct labels actin between Z-lines, which correspond to dark lines in LifeAct-labeled myofibrils. (Ribeiro 2015a) Therefore, the minimal distance between adjacent dark lines in LifeAct-labeled myofibrils defines sarcomere size. We used four different approaches to quantify sarcomere size along LifeAct-labeled myofibrils from frames of single beating hiPSC-CMs (FIG. 12) and used the second approach for performing better when analyzing videos with minimal user intervention.
The second approach (FIG. 12B) is a novel method that we developed to determine sarcomere lengths in each frame without the need of curve-fitting procedures or radial Fourier transforms. The approach consists of automatically measuring the length of the segment between adjacent Z-lines that is parallel to the direction of myofibril alignment (FIG. 15). The algorithm for this approach measured the length from Z-line i to Z-line i+1 using information on myofibril orientation in the region around Z-line i and Z-line i+1 and considering a skeleton of sarcomeres generated as previously detailed for the first approach. The algorithm developed first a map of all points that compose the sarcomere skeleton and each point was taken once as a starting location of a path along the direction of myofibril orientation that stopped when another Z-line in the skeleton was reached (FIG. 15). The length between adjacent Z-lines was therefore defined as the Euclidean distance between start and end points calculated with this method (FIG. 15). The path was calculated pixel by pixel within the skeletonized image. For each new pixel of the path, the algorithm evaluated what the other pixel of the path was based on the local orientation of the myofibril. For pixels that were starting points or pixels already in a path, the local orientation angle of myofibrils was taken as the deciding factor to determine the next path pixel. In the algorithm, we particularly defined that the y direction of the path could be chosen freely, but only pixels in the +x direction could be candidates for the next element of the path (FIG. 15). This definition derived from the fact that every point composing the skeleton was considered as a starting point and because orientations of myofibrils are in the [0,Th] range. In relation to a known point of a path, the next neighboring pixel to be included as the next element of that path could be the pixel on the right, on the top, on the bottom, on the top right or on the bottom right (FIG. 15-B). Given this condition, a 10° angle or a 0° angle of known myofibril orientation lead to the same decision for the next pixel to include in the path: the pixel on the right. We estimated the local orientation of myofibrils through the MATLAB-written code RIDGEORIENT. (Kovesi 2000) This tool indicates the principle ridge direction through local gradient variations. By definition, the gradient is […] to the main orientation. (Krause 2009)
The global orientation of a myofibril between Z-lines was also taken in consideration for deciding the next pixel in the path between Z-lines (FIG. 15) because small angles can add up during the extending of the line defined by the path and better reveal the real myofibril orientation. For example, starting at a pixel on a Z-line (x1, y1) with a local orientation angle θ1=10°, the next pixel would have to be (x1+1, y1). If θ2=10°, the next pixel would again be to the right, adding (x1+2, y1) to the path. […]

Turning to `CC(C)NCC(O)c1ccc(O)c(O)c1` (stereo not shown) [isoproterenol], the “average values of sl (sarcomere length)” value is “decreased”. Also, for the setting “0.1 μM isoproterenol”, the minimal average sl result is given as “decreased”. Further, the “ss (sarcomere shortening)” value (0.1 μM isoproterenol (FIG. 7D)) is given as “considerably increased”. The minimal average sl result (1 μM isoproterenol) was “decrease even more”. Also, where the note is “1 μM isoproterenol (FIG. 7D)”, the “increase of ss (sarcomere shortening)” value is reported as “not with 1 μM”. Moreover, for the setting “1 μM isoproterenol, relative to before adding (FIG. 7B)”, the “maximal mean values of sl” value is “decreased”.
`COC(=O)N1CCN(Cc2cccc(NC(=O)Nc3ccc(C)nc3)c2F)CC1` [omecamtiv mecarbil]: the “average values of sl (sarcomere length)” value was “decreased”. Besides, the maximal average sl result (chronic and acute effects of omecamtiv mecarbil (FIG. 7F)) was “decrease”. The minimum average sl result (chronic and acute effects of omecamtiv mecarbil (FIG. 7G)) was “decrease”. The average ss entry (chronic and acute effects of omecamtiv mecarbil (FIG. 7H)) is reported as “decrease”.
